Results as given in patent US20070154540A1 (KMSI CO., LTD., priority 2003, published 2007).
Where two headings read alike, the source gives them in different places.

Key:
RAW 264.7 cells [1] = assay: LPS-induced prostaglandin E2 production of macrophages (immunoassay); format: cell-based, mice; settings: LPS alone 4156, non-treated 71
Description: (§1) A macrophage cell line derived from mice, RAW 264.7 (KCLB 40071), was purchased from the Korean Cell Line Bank. RAW 264.7 cells were seeded in a density of 3×10^6 cells onto 60-mm culture dishes containing DMEM (Dulbecco's Modified Eagle Medium, 12800-017, Gibco) supplemented with 10% FBS (fetal bovine serum, 26140-079, Gibco), 100 U/ml of penicillin and 100 μg/ml streptomycin (15140-122, Gibco), and cultured at 37° C. under 5% CO2 and humidity for 24 hrs. To induce NO production, RAW 264.7 cells were treated with 500 ng/ml of an E. coli cell wall component, lipopolysaccharide (LPS, […], Sigma). […] Herein, LPS was dissolved in distilled water, and apigenin was dissolved in DMSO. Then, the culture medium and a Griess reagent were mixed at a ratio of 1:1 (100 μl: 100 μl) and allowed to stand at room temperature for 10 min. Thereafter, absorbance was measured at 540 nm using a spectrophotometer (Power Wave X340, Bio-Tek). RAW 264.7 cells were treated under the same conditions as in Example 12. PGE2 levels were measured using a PGE2 immunoassay kit (DE0100, R&D Systems). 100 μl of a culture medium was allowed to react with 50 μl of a conjugate and 50 μl of an antibody in the kit for two hours, and was then allowed to react with 200 μl of a developing reagent, pNPP, for one hour. Thereafter, absorbance was measured at 405 nm using a spectrophotometer (Power Wave X340, Bio-Tek).

[2] = test system: osteoarthritis-induced New Zealand white rabbits; assay: Mankin's scoring of joints; format: in vivo; settings: after osteoarthritis induction, scale 0 to 14; control group 12.5
Description: In histological tests, degenerative changes, such as structural changes of cartilage, cell number changes in cartilage and surface staining distribution by cartilage staining with a dye, were evaluated according to a standard scoring system for the progress of osteoarthritis, Mankin's scoring (Mankin, H. J. et al., Orthopedic Clinics of North America, 2:19-30 (1971)). In the present invention, blind tests were performed by two inspectors according to the Mankin's criteria.
To prepare an osteoarthritis animal model, New Zealand white rabbits underwent anterior cruciate ligament transection (ACLT) in joints of their two hind legs. After three days, the rabbits were forced to sustain movement for four weeks in a space of 5×5 m^3 to induce substantial osteoarthritis. […]
30-mm synovial tissues were sectioned from the medial parapatella synovium of knee joints of experimental animals, fixed with 10% […] (F0507, Sigma) for over 24 hrs, and embedded in paraffin to make 4-mm paraffin blocks. […] Mankin's scoring was performed by blind tests carried out by two inspectors, and Mankin scores were determined according to the degree of degenerative progress and ranged from 0 (normal in all items) to a maximum score of 14, thus calculating a degenerative change index.

[3] = test system: chondrocytes isolated from the cartilage of New Zealand white rabbits; assay: cells; format: cell-based; settings: Oryctolagus cuniculus, Chondrocyte, read-out: IC50 values for apigenin on chondrocytes
Description: During culturing, on Days 1, 2, 4 and 6, IC50 values were measured by a MTT assay based on cell viability.

[4] = test system: osteoarthritis-induced New Zealand white rabbits; assay: Proteoglycan levels in joint synovial fluids (1,9-dimethylmethylene blue assay); format: in vivo
From the text: (§2) To prepare an osteoarthritis animal model, New Zealand white rabbits underwent anterior cruciate ligament transection (ACLT) in joints of their two hind legs. After three days, the rabbits were forced to sustain movement for four weeks in a space of 5×5 m^3 to induce substantial osteoarthritis. […] The following Examples 3 to 10 were all performed using joints of the osteoarthritis-induced New Zealand white rabbits prepared as in this Example 2.
In the joint synovial fluids prepared in Example 3, proteoglycan levels were measured using a 1,9-dimethylmethylene blue assay (Houselmann H. J. et al., Am. J. Physiol. 271:C742-752, (1996)). A synovial fluid sample of 50 μl was mixed with 250 μl of 1,9-dimethylmethylene blue (34,108-8, Aldrich), and absorbance was measured at 530 nm using a spectrophotometer (Power Wave X340, Bio-Tek).

RAW 264.7 cells [5] = assay: LPS-induced NO production of macrophages (Griess); format: cell-based, mice; settings: 16 hrs, LPS alone 40, non-treated 2
Description: as §1, with “Bio-Tek).” for “Bio-Tek). RAW 264.7 cells were treated under the same conditions as in Example 12. PGE2 levels were measured using a PGE2 immunoassay kit (DE0100, R&D Systems). 100 μl of a culture medium was allowed to react with 50 μl of a conjugate and 50 μl of an antibody in the kit for two hours, and was then allowed to react with 200 μl of a developing reagent, pNPP, for one hour. Thereafter, absorbance was measured at 405 nm using a spectrophotometer (Power Wave X340, Bio-Tek).”

[6] = test system: osteoarthritis-induced New Zealand white rabbits; assay: Collagen levels in joint synovial fluids (Sirius Red staining); format: in vivo
From the text: as §2
Total collagen levels in synovial fluids were measured by Sirius Red staining (Heide T. R. et al., Histochem. […]. Then, total collagen levels were determined by measuring absorbance at 550 nm. A standard curve was obtained by measuring absorbance at 550 nm for collagen type I (C1188, Sigma) of various concentrations of 0, 100, 200, 300, 400 and 500 μg. Using the standard curve, collagen levels in synovial fluids were determined.

[7] = apigenin-treated right leg (+), four weeks after drug injection
[8] = apigenin-treated right leg (+), four weeks after drug injection, listed as Apigenin
[9] = apigenin-treated right leg (+), two weeks after drug injection
[10] = non-treated left leg (−) of apigenin treatment group, four weeks after drug injection
[11] = non-treated left leg (−) of apigenin treatment group, two weeks after drug injection

`O=c1cc(-c2ccc(O)cc2)oc2cc(O)cc(O)c12` [apigenin, 4′,5,7-trihydroxyflavone] showed a PGE2 (RAW 264.7 cells [1]; LPS 500 ng/ml + apigenin 10 μM) of 3935 pg/mL, a PGE2 (RAW 264.7 cells [1]; LPS 500 ng/ml + apigenin 20 μM) of 3918 pg/mL and a PGE2 (RAW 264.7 cells [1]; LPS 500 ng/ml + apigenin 40 μM) of 1057 pg/mL. The PGE2 (RAW 264.7 cells [1]; LPS 500 ng/ml + apigenin 80 μM) was 300 pg/mL, the “Mankin score (mean)” value [2] was 6.6 and the IC50 ([3]; 24 h) was about 200 µM. It also gave an IC50 ([3]; 48 h) of about 100 µM, an IC50 ([3]; 96 h) of about 40 µM and an IC50 ([3]; 144 h) of about 30 µM. The “Proteoglycan levels in joint synovial fluids” value (shortened to “Proteoglycan levels”) [4, 7] was “about 12.22 μg/ml”, the “Proteoglycan levels” value [4, 8] was 12.22 ± 0.4 µg/mL and the “Proteoglycan levels” value [4, 9] was 10.32 ± 0.66 µg/mL. For the same molecule, the “Proteoglycan levels” value [4, 10] was 34.09 ± 0.24 µg/mL, the “Proteoglycan levels” value [4, 11] was 22.90 ± 0.86 µg/mL and the Nitrite (RAW 264.7 cells [5]; LPS 500 ng/ml + apigenin 10 μM) was 32.2 µM. For the same molecule, the Nitrite (RAW 264.7 cells [5]; LPS 500 ng/ml + apigenin 20 μM) was 22.2 µM, the Nitrite (RAW 264.7 cells [5]; LPS 500 ng/ml + apigenin 40 μM) was 10.1 µM and the Nitrite (RAW 264.7 cells [5]; LPS 500 ng/ml + apigenin 80 μM) was 9 µM. The “Collagen levels in joint synovial fluids” value [6, 7] was 406.56 µg/mL, the “Collagen levels in joint synovial fluids” value [6, 8] was 406.6 ± 0.63 µg/mL and the “Collagen levels in joint synovial fluids” value [6, 9] was 397.4 ± 0.69 µg/mL. The “Collagen levels in joint synovial fluids” value [6, 10] was “about 1019.2 μg/ml”, the “Collagen levels in joint synovial fluids” value ([6]; non-treated left leg (−) of apigenin treatment group, four weeks after drug injection, listed as Apigenin) was 1019.2 ± 0.79 µg/mL and the “Collagen levels in joint synovial fluids” value [6, 11] was 749.4 ± 0.46 µg/mL.
